Test results reported in ChEMBL document CHEMBL5143625, “Isolation, synthesis and bioactivity evaluation of isoquinoline alkaloids from Corydalis hendersonii Hemsl. against gastric cancer in vitro and in vivo” (Bioorg Med Chem, 2022).

Legend:
[1] = test system: GES1; test: Antiproliferative activity against human GES1 cells assessed as reduction in cell viability after 24 hrs by MTT assay; format: functional, cell-based; settings: GES1, 24 h
[2] = test system: MGC-803; test: Antiproliferative activity against human MGC-803 cells assessed as reduction in cell viability after 24 hrs by MTT assay; format: functional, cell-based; settings: MGC-803, 24 h
[3] = test system: HGC-27; test: Antiproliferative activity against human HGC-27 cells assessed as reduction in cell viability after 24 hrs by MTT assay; format: functional, cell-based; settings: HGC-27, 24 h
[4] = test system: MGC-803; test: Antitumor activity against human MGC-803 cells xenografted in immunodeficient nude mouse assessed as tumor volume at 10 mg/kg, ip administered for 3 weeks (reference value: 1039.6 mm3); format: functional
[5] = Toxicity in immunodeficient nude mouse xenografted with human MGC-803 cells assessed as reduction in body weight at 10 mg/kg, ip administered for 3 weeks relative to control; format: organism-based; design: scale not given: the % may be the effect or the level left; settings: in vivo, 504 h
[6] = test system: MGC-803; test: Antitumor activity against human MGC-803 cells xenografted in immunodeficient nude mouse assessed as tumor weight at 10 mg/kg, ip administered for 3 weeks (reference value: 157.8 mg); format: functional

| SMILES | IC50 [1] | IC50 [2] | IC50 [3] | Activity [4] | Activity [5] | Activity [6] |
| --- | --- | --- | --- | --- | --- | --- |
| COc1cc2c(cc1O)[C@@H]1Cc3ccc(OC)c(O)c3CN1CC2 [SCOULERINE] | 95.3 µM | 12.6 µM | 6.1 µM |  |  |  |
| O=c1[nH]cc(F)c(=O)[nH]1 [FLUOROURACIL] | 49.6 µM | 28.6 µM | 45.2 µM | 375.4 mm3 | 14.2% | 157.8 mg |
| COc1cc(/C=C/C(=O)NCCc2ccc(O)cc2)ccc1O [N-TRANS-FERULOYL TYRAMINE] | > 150 µM | 98.3 µM | 84.5 µM |  |  |  |
| CC(=O)c1ccc2c(c1Cn1ccc3cc4c(cc3c1=O)OCO4)OCO2 | 137 µM | 79.9 µM | 53.8 µM |  |  |  |
| COc1cc2c(cc1O)C1Cc3ccc4c(c3CN1CC2)OCO4 (stereo not drawn) [CHEILANTHIFOLINE] | 114 µM | 83.2 µM | 38.3 µM |  |  |  |
| CCOC(=O)c1c(C(=O)c2nccc3cc4c(cc23)OCO4)ccc2c1OCO2 | 147 µM | 76 µM | 66.1 µM |  |  |  |
| c1cc2c(c3c1CC1c4cc5c(cc4CCN1C3)OCO5)OCO2 (stereo not drawn) | > 150 µM | 107 µM | 55.1 µM |  |  |  |
| COc1cc2c(cc1Cc1nccc3cc4c(cc13)OCO4)OCO2 | > 150 µM | > 150 µM | 122 µM |  |  |  |
| COc1ccc2c(c1OC)CN(C)CCc1cc3c(cc1C(=O)C2)OCO3 [ALLOCRYPTOPINE] | > 150 µM | 109 µM | 97.8 µM |  |  |  |
| CN1CCc2cc3c(cc2C(=O)Cc2ccc4c(c2C1)OCO4)OCO3 | > 150 µM | 94.5 µM | 121 µM |  |  |  |
| O=c1c2c3c(ccc2cc2n1CCc1cc4c(cc1-2)OCO4)OCO3 | > 150 µM | 61.5 µM | 54.6 µM |  |  |  |
| O=C1NCCc2cc3c(cc21)OCO3 [NOROXYHYDRASTININE] | > 150 µM | > 150 µM | 120 µM |  |  |  |
| CN1CCc2cc3c(cc2[C@H]1[C@H]1OC(=O)c2c1ccc1c2OCO1)OCO3 | > 150 µM | > 150 µM | 100 µM |  |  |  |
| COc1cc2c(cc1C(=O)c1nccc3cc4c(cc13)OCO4)OCO2 | 76 µM | 7.8 µM | 9.3 µM |  |  |  |
| COc1cc2c(cc1OC)C1Cc3ccc4c(c3CN1CC2)OCO4 (stereo not drawn) | > 150 µM | 94.3 µM | 81 µM |  |  |  |
